According to publication PMC3877906, “Polypeptide Modulators of TRPV1 Produce Analgesia without Hyperthermia” (Marine Drugs, 2013):

Key:
TRPV1 [1] = test: single cell Ca^2+ imaging, acid-induced (pH 5.5) responses of TRPV1-positive HEK-293 cells; type: cell-based, rat; conditions: for inhibition of acid responses: Fura-2, mean ± s.d.
Method: Figure 2 Effects of APHC3 on recombinant TRPV1 expressed in HEK-293 cells. (a) Resting current recorded from a TRPV1-positive cell held at −30 mV. […] Straight lines above the recording indicate application of APHC3 (Long line) and capsaicin (Short lines). The cells were stimulated and rinsed by rapid switching of the bath solution between the control solution and solutions containing the indicated compound. (b) Capsaicin responses in control and in the presence of the 300 nM APHC3 peptide. In each case, the control response was calculated as an average of two acid responses recorded just prior to peptide application. Averaged responses recorded in the presence of APHC3 were normalized to averaged control responses. Those are presented as the mean ± s.d. (n = 4). […] (c, d) Cell responses to the acidification of the bath solution from pH 7.4 to pH 5.5 in control and in the presence of the APHC3 applied at different concentrations as indicated. The experimental traces in (c) and in (d, upper trace) illustrate representative responses of EGFP/TRPV1-positive cells. The bottom trace in (d) represents responses of an EGFP/TRPV1-negative cell assayed simultaneously. (e) Acid responses recorded in the presence of APHC3 (90, 160 and 240 nM) normalized to a control response. The data are presented as the mean ± s.d. (n = 5–10). […] In each case, the control response was calculated as an average of the two acid responses recorded just prior to peptide application. The average of the two acid responses recorded after peptide application was calculated and normalized to the control response. Experimental traces in (c, d) were obtained from three different cells. The changes in bath solution pH (continuous lines) and APHC3 applications (thick straight lines) are shown above the fluorescence traces. Cells were stimulated and rinsed by a rapid replacement of the control bath solution with modified bath solution at pH 5.5 with or without APHC3.
HEK-293 cells were cultured in Dulbecco’s modified Eagle’s medium (DMEM) (Life Technologies, Grand Island, NY, USA) containing 10% (vol/vol) fetal bovine serum (Thermo Fisher Scientific, Palm Beach, FL, USA), glutamine (1%) and the antibiotic gentamicin (100 μg/mL) (Life Technologies, Grand Island, NY, USA). The pIRES2-EGFP plasmid harboring rat TRPV1 cDNA was transiently transfected into HEK-293 cells by replacing the growth medium in each well with a transfection mixture, containing 1.6 μg of DNA and 4 μL of Lipofectamine (Life Technologies, Grand Island, NY, USA) in 1 mL of serum-free DMEM. After incubating for 6 h, the transfection mixture was replaced with normal culture medium. Cells were assayed within 48–96 h after transfection.

TRPV1 [2] = conditions: ref [14], cited from earlier work
Method: APHC3’s mode of action was measured on HEK-293 cells using a whole-cell patch clamp approach and single cell Ca^2+ imaging. […] APHC3 is highly homologous to APHC1, differing in four of 56 amino acids. APHC1 and APHC3 have a primary structure that is highly homologous to BPTI/Kunitz type seri ... || The residues responsible for APHC’s activity are not determined. […] These dif ...

Substance	reversibility of inhibitory effects (TRPV1 [1]; after washout of the polypeptide, Figure 2a,c,d (capsaicin currents and acid responses))	inhibition of acid-induced Ca^2+ transients, significance (TRPV1 [1]; pH 5.5, 160 and 240 nM, Student test, p < 0.05)	inhibition of acid responses, in words (TRPV1 [1]; pH 5.5, APHC3 90 nM, n = 5)	inhibition of acid responses (TRPV1 [1]; pH 5.5, APHC3 160 nM, n = 7)	inhibition of acid responses (TRPV1 [1]; pH 5.5, APHC3 240 nM, 10 cells)	inhibition of capsaicin-induced currents (TRPV1 [2]; more than 200 nM)	activity on capsaicin-induced TRPV1 currents, in words (TRPV1 [2]; previous study)
APHC3: polypeptide from Heteractis crispa highly homologous to APHC1, differing in four of 56 amino acids; produced recombinantly in E. coli (GSICLEPKVVGPCTAYFPRFYFNSETGKCTPFIYGGCEGNGNNFETLRACRGICRA; left off: TRX, end not stated, cleaved)	almost completely reversible	statistically significant at 160 and 240 nM	insignificantly effective	15% ± 9%	77% ± 14%	–	–
APHC1: polypeptide modulator of TRPV1 from sea anemone Heteractis crispa; homologous to BPTI/Kunitz type serine-protease inhibitors; produced recombinantly in E. coli (GSICLEPKVVGPCTAYFRRFYFDSETGKCTVFIYGGCEGNGNNFETLRACRAICRA; left off: TRX, end not stated, cleaved)	–	–	–	–	–	~ 32%	partial antagonist
